Test results as given in ChEMBL document CHEMBL1909046, “DrugMatrix in vitro pharmacology data”.

target: Aldo-keto reductase family 1 member B1 (Rattus norvegicus, UniProt P07943); format: tissue-based, Lens of camera-type eye; conditions: not given;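 note: inhibition of aldose reductase enzyme activity, measured with DL-glyceraldehyde as the substrate; in other assays of this panel Not Active means under 50% inhibition at 10 µM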

SMILES	IC50
CC(=O)[C@@]1(O)CC[C@H]2[C@@H]3C[C@H](C)C4=CC(=O)C=C[C@]4(C)[C@@]3(F)[C@@H](O)C[C@@]21C [FLUOROMETHOLONE]	Not Active
C[C@]12CCC(=O)C=C1CC[C@@H]1[C@@H]2C(=O)C[C@@]2(C)[C@H]1CC[C@]2(O)C(=O)CO [CORTISONE]	Not Active
CC(=O)O[C@]1(C(C)=O)CC[C@H]2[C@@H]3C=C(Cl)C4=CC(=O)CC[C@]4(C)[C@H]3CC[C@@]21C [CHLORMADINONE ACETATE]	Not Active
O=C1OCCN1/N=C/c1ccc([N+](=O)[O-])o1 [FURAZOLIDONE]	Not Active
CCCc1cc(=O)[nH]c(=S)[nH]1 [PROPYLTHIOURACIL]	Not Active
CC(=O)OCC(=O)[C@@]1(OC(C)=O)[C@@H](C)C[C@H]2[C@@H]3C[C@H](F)C4=CC(=O)C=C[C@]4(C)[C@@]3(F)[C@@H](O)C[C@@]21C [DIFLORASONE DIACETATE]	Not Active

target: T1, Receptor-type tyrosine-protein phosphatase C (Homo sapiens, UniProt P08575); parameters: species or system Escherichia coli; conditions: not given;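 note: inhibition of CD45 enzyme activity measured using DiFMUP as substrate; in other assays of this panel Not Active means under 50% inhibition at 10 µM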
T1 sequence (P08575 whole entry): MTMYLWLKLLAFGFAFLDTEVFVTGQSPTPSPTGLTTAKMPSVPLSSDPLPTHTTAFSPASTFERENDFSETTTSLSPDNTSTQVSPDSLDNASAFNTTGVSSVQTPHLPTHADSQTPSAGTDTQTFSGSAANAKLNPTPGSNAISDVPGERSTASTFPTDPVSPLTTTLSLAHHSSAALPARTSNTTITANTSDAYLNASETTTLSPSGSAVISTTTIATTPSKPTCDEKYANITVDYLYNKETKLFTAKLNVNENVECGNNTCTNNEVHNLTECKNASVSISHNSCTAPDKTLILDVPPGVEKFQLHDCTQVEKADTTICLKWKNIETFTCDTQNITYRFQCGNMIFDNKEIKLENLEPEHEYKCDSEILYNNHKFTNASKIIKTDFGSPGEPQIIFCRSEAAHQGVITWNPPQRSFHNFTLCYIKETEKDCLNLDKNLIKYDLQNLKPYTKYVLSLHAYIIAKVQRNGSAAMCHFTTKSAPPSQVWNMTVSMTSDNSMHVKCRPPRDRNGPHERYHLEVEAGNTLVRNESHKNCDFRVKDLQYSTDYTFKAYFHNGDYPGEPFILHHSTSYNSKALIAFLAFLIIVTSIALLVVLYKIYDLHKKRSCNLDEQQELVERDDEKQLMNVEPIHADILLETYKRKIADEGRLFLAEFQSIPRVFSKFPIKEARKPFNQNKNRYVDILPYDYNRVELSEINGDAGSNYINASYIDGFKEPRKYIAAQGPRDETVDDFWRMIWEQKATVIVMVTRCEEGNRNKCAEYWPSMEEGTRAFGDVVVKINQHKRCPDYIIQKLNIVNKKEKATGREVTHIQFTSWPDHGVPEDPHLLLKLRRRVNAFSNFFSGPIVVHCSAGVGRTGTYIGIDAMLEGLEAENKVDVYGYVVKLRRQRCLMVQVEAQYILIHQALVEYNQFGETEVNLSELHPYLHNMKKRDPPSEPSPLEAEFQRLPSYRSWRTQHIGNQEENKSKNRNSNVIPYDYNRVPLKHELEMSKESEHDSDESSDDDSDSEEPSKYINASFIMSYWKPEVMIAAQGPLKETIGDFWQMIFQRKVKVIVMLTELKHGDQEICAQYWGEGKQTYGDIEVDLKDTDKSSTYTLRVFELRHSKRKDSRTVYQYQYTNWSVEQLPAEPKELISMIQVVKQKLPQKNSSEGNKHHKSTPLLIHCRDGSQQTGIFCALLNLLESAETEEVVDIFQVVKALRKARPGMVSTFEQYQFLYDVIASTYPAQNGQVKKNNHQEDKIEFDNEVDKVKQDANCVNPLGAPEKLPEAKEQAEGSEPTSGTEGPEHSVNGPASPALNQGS

SMILES	IC50
CC(=O)[C@@]1(O)CC[C@H]2[C@@H]3C[C@H](C)C4=CC(=O)C=C[C@]4(C)[C@@]3(F)[C@@H](O)C[C@@]21C [FLUOROMETHOLONE]	Not Active
C[C@]12CCC(=O)C=C1CC[C@@H]1[C@@H]2C(=O)C[C@@]2(C)[C@H]1CC[C@]2(O)C(=O)CO [CORTISONE]	Not Active
CC(=O)O[C@]1(C(C)=O)CC[C@H]2[C@@H]3C=C(Cl)C4=CC(=O)CC[C@]4(C)[C@H]3CC[C@@]21C [CHLORMADINONE ACETATE]	Not Active
O=C1OCCN1/N=C/c1ccc([N+](=O)[O-])o1 [FURAZOLIDONE]	Not Active
CCCc1cc(=O)[nH]c(=S)[nH]1 [PROPYLTHIOURACIL]	Not Active
CC(=O)OCC(=O)[C@@]1(OC(C)=O)[C@@H](C)C[C@H]2[C@@H]3C[C@H](F)C4=CC(=O)C=C[C@]4(C)[C@@]3(F)[C@@H](O)C[C@@]21C [DIFLORASONE DIACETATE]	Not Active

target: T2, Muscarinic acetylcholine receptor M5 (Homo sapiens, UniProt P08912); format: cell membranes, CHO-K1, Membrane; conditions: cho-k1; note: in other assays of this panel Not Active means under 50% inhibition at 10 µM
T2 sequence (P08912 whole entry): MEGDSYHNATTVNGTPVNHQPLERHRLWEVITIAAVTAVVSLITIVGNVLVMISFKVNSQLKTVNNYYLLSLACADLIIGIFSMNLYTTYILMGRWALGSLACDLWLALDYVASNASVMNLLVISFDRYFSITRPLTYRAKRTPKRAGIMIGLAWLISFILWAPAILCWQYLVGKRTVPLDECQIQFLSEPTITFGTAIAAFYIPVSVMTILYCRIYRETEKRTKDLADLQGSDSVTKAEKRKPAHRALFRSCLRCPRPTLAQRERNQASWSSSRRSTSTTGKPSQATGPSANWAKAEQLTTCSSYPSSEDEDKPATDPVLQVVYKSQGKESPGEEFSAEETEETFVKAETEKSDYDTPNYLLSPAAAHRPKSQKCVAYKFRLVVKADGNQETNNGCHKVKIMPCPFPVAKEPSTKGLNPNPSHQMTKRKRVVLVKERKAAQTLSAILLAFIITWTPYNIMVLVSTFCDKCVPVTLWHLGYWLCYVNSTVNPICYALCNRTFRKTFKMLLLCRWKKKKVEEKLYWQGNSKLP

SMILES	IC50
CC(=O)[C@@]1(O)CC[C@H]2[C@@H]3C[C@H](C)C4=CC(=O)C=C[C@]4(C)[C@@]3(F)[C@@H](O)C[C@@]21C [FLUOROMETHOLONE]	Not Active
C[C@]12CCC(=O)C=C1CC[C@@H]1[C@@H]2C(=O)C[C@@]2(C)[C@H]1CC[C@]2(O)C(=O)CO [CORTISONE]	Not Active
CC(=O)O[C@]1(C(C)=O)CC[C@H]2[C@@H]3C=C(Cl)C4=CC(=O)CC[C@]4(C)[C@H]3CC[C@@]21C [CHLORMADINONE ACETATE]	Not Active
O=C1OCCN1/N=C/c1ccc([N+](=O)[O-])o1 [FURAZOLIDONE]	Not Active
CCCc1cc(=O)[nH]c(=S)[nH]1 [PROPYLTHIOURACIL]	Not Active
CC(=O)OCC(=O)[C@@]1(OC(C)=O)[C@@H](C)C[C@H]2[C@@H]3C[C@H](F)C4=CC(=O)C=C[C@]4(C)[C@@]3(F)[C@@H](O)C[C@@]21C [DIFLORASONE DIACETATE]	Not Active

target: T3, Alpha-2A adrenergic receptor (Homo sapiens, UniProt P08913); format: cell membranes, Sf9, Membrane; conditions: sf9; note: in other assays of this panel Not Active means under 50% inhibition at 10 µM
T3 sequence (P08913 whole entry): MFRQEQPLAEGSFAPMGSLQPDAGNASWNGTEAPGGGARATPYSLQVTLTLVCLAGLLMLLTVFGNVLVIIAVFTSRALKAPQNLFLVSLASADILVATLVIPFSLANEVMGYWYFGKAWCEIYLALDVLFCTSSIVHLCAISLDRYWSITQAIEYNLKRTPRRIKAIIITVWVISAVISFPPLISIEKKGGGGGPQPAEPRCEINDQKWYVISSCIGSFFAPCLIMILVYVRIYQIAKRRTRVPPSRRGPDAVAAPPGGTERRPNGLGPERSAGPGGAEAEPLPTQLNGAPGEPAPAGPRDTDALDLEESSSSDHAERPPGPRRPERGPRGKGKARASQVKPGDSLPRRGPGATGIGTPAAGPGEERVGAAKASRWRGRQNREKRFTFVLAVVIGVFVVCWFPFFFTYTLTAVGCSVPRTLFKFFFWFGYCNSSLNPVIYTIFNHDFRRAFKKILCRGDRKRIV

SMILES	IC50
CC(=O)[C@@]1(O)CC[C@H]2[C@@H]3C[C@H](C)C4=CC(=O)C=C[C@]4(C)[C@@]3(F)[C@@H](O)C[C@@]21C [FLUOROMETHOLONE]	Not Active
C[C@]12CCC(=O)C=C1CC[C@@H]1[C@@H]2C(=O)C[C@@]2(C)[C@H]1CC[C@]2(O)C(=O)CO [CORTISONE]	Not Active
CC(=O)O[C@]1(C(C)=O)CC[C@H]2[C@@H]3C=C(Cl)C4=CC(=O)CC[C@]4(C)[C@H]3CC[C@@]21C [CHLORMADINONE ACETATE]	Not Active
O=C1OCCN1/N=C/c1ccc([N+](=O)[O-])o1 [FURAZOLIDONE]	Not Active
CCCc1cc(=O)[nH]c(=S)[nH]1 [PROPYLTHIOURACIL]	Not Active
CC(=O)OCC(=O)[C@@]1(OC(C)=O)[C@@H](C)C[C@H]2[C@@H]3C[C@H](F)C4=CC(=O)C=C[C@]4(C)[C@@]3(F)[C@@H](O)C[C@@]21C [DIFLORASONE DIACETATE]	Not Active

target: Sodium-dependent dopamine transporter (Homo sapiens, UniProt Q01959); assay: DRUGMATRIX: Dopamine Transporter radioligand binding (ligand: [125I] RTI-55); format: cell membranes, CHO-K1, Membrane; conditions: cho-k1; Not Active = under 50% inhibition at 10 µM
Sequence (Q01959 whole entry): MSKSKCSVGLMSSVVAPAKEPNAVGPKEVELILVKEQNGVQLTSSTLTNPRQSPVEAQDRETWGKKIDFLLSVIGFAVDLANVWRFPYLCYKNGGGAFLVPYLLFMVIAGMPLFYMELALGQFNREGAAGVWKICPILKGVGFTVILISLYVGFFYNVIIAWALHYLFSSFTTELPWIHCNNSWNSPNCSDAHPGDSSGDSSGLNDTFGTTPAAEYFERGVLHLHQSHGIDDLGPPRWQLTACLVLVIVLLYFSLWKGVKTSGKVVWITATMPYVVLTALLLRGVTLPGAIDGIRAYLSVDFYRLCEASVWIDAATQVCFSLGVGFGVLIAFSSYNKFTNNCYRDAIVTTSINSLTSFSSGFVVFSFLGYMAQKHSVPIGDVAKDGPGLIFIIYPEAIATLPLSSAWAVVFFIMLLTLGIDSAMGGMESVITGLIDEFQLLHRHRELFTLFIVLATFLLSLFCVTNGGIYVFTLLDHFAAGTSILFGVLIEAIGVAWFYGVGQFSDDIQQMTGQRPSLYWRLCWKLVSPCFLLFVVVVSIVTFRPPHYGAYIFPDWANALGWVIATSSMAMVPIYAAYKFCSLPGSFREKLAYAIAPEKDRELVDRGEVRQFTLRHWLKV

SMILES	IC50
CC(=O)[C@@]1(O)CC[C@H]2[C@@H]3C[C@H](C)C4=CC(=O)C=C[C@]4(C)[C@@]3(F)[C@@H](O)C[C@@]21C [FLUOROMETHOLONE]	Not Active
C[C@]12CCC(=O)C=C1CC[C@@H]1[C@@H]2C(=O)C[C@@]2(C)[C@H]1CC[C@]2(O)C(=O)CO [CORTISONE]	Not Active
CC(=O)O[C@]1(C(C)=O)CC[C@H]2[C@@H]3C=C(Cl)C4=CC(=O)CC[C@]4(C)[C@H]3CC[C@@]21C [CHLORMADINONE ACETATE]	Not Active
O=C1OCCN1/N=C/c1ccc([N+](=O)[O-])o1 [FURAZOLIDONE]	Not Active
CCCc1cc(=O)[nH]c(=S)[nH]1 [PROPYLTHIOURACIL]	Not Active
CC(=O)OCC(=O)[C@@]1(OC(C)=O)[C@@H](C)C[C@H]2[C@@H]3C[C@H](F)C4=CC(=O)C=C[C@]4(C)[C@@]3(F)[C@@H](O)C[C@@]21C [DIFLORASONE DIACETATE]	Not Active

system: not listed separately; assay: DRUGMATRIX: Sodium/nucleoside co-transporter radioligand binding (ligand: nitrobenzylthioinosine); format: cell membranes, Cavia porcellus, Dunkin-Hartley, Cerebral cortex, Membrane; conditions: Not Active = under 50% inhibition at 10 µM

SMILES	IC50	Ki
CC(=O)[C@@]1(O)CC[C@H]2[C@@H]3C[C@H](C)C4=CC(=O)C=C[C@]4(C)[C@@]3(F)[C@@H](O)C[C@@]21C [FLUOROMETHOLONE]	Not Active	Not Active
C[C@]12CCC(=O)C=C1CC[C@@H]1[C@@H]2C(=O)C[C@@]2(C)[C@H]1CC[C@]2(O)C(=O)CO [CORTISONE]	Not Active	Not Active
CC(=O)O[C@]1(C(C)=O)CC[C@H]2[C@@H]3C=C(Cl)C4=CC(=O)CC[C@]4(C)[C@H]3CC[C@@]21C [CHLORMADINONE ACETATE]	Not Active	Not Active
O=C1OCCN1/N=C/c1ccc([N+](=O)[O-])o1 [FURAZOLIDONE]	Not Active	Not Active
CCCc1cc(=O)[nH]c(=S)[nH]1 [PROPYLTHIOURACIL]	Not Active	Not Active
CC(=O)OCC(=O)[C@@]1(OC(C)=O)[C@@H](C)C[C@H]2[C@@H]3C[C@H](F)C4=CC(=O)C=C[C@]4(C)[C@@]3(F)[C@@H](O)C[C@@]21C [DIFLORASONE DIACETATE]	Not Active	Not Active

target: T4, Type-2 angiotensin II receptor (Homo sapiens, UniProt P50052); format: cell-based; conditions: cho-k1; note: in other assays of this panel Not Active means under 50% inhibition at 10 µM
T4 sequence (P50052 whole entry): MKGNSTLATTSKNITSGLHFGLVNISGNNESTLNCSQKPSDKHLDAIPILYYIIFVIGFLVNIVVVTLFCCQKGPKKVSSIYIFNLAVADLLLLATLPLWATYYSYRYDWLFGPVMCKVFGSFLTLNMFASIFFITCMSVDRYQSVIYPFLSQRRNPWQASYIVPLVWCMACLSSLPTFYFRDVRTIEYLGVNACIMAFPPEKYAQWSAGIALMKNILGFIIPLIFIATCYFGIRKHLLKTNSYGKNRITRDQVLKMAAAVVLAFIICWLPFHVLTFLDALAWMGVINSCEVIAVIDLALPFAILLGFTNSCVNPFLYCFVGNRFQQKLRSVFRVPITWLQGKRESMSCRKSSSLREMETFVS

SMILES	IC50
CC(=O)[C@@]1(O)CC[C@H]2[C@@H]3C[C@H](C)C4=CC(=O)C=C[C@]4(C)[C@@]3(F)[C@@H](O)C[C@@]21C [FLUOROMETHOLONE]	Not Active
C[C@]12CCC(=O)C=C1CC[C@@H]1[C@@H]2C(=O)C[C@@]2(C)[C@H]1CC[C@]2(O)C(=O)CO [CORTISONE]	Not Active
CC(=O)O[C@]1(C(C)=O)CC[C@H]2[C@@H]3C=C(Cl)C4=CC(=O)CC[C@]4(C)[C@H]3CC[C@@]21C [CHLORMADINONE ACETATE]	Not Active
O=C1OCCN1/N=C/c1ccc([N+](=O)[O-])o1 [FURAZOLIDONE]	Not Active
CCCc1cc(=O)[nH]c(=S)[nH]1 [PROPYLTHIOURACIL]	Not Active
CC(=O)OCC(=O)[C@@]1(OC(C)=O)[C@@H](C)C[C@H]2[C@@H]3C[C@H](F)C4=CC(=O)C=C[C@]4(C)[C@@]3(F)[C@@H](O)C[C@@]21C [DIFLORASONE DIACETATE]	Not Active
